Starred links: 1 amine or outer side, 2 acyl side, 3 side chain; linkers in the order of their positions; H or OH if unused. Positions of bridges follow the written chain, without caps; N, C: chain ends. Residues, ends and D or L forms follow the SMILES beside them. *: point of attachment. C20 diacid = O=C(O)CCCCCCCCCCCCCCCCCCC(=O)*; C18 diacid = O=C(O)CCCCCCCCCCCCCCCCC(=O)*; γGlu = O=C(O)[C@H](CCC(=O)[*:2])N[*:1]
Test: Assay (I) efficacy testing on appetite (food intake), ad libitum fed rat model
Assay type: in vivo, Sprague Dawley (SD) rats
Excerpt: Sprague Dawley (SD) rats from Taconic Europe, Denmark are used for the experiments. The rats have a body weight 200-250 g at the start of experiment. The rats arrive at least 10-14 days before start of experiment to allow acclimatization to experimental settings. During this period the animals are handled at least 2 times. After arrival rats are housed individually for one week in a reversed light/dark phase (meaning that lights are off during daytime and on during nighttime) […]. Since rats are normally active and eat their major part of their daily food intake during the dark period, rats are dosed in the morning right before lights are turned off. This set-up results in the lowest data variation and highst test sensitivity. The experiment is conducted in the rats' home cages and rats have free access to food and water througout the acclimatization period and the experiment period. Each dose of derivative is tested in a group of 5-8 rats. A vehicle group of 6-8 rats is included in each set of testing. Rats are dosed once according to body weight with a 0.01-3 mg/kg solution administered intraperitoneally (ip), orally (po) or subcutaneously (sc). The time of dosing is recorded for each group. After dosing, the rats are returned to their home cages, where they then have access to food and water. The food consumption is recorded individually continuously by on-line registration or manually every hour for 7 hours, and then after 24 h and sometimes 48 h. At the end of the experimental session, the animals are euthanised.
The individual data are recorded in Microsoft excel sheets. Outliers are excluded after applying the Grubbs statistical evaluation test for outliers, and the result is presented graphically using the GraphPad Prism program.

| SMILES | Food intake reduction 0-24 h 3 nmol/kg (%) | Food intake reduction 24-48 h 3 nmol/kg (%) | Food intake reduction 0-24 h 30 nmol/kg (%) | Food intake reduction 24-48 h 30 nmol/kg (%) |
| --- | --- | --- | --- | --- |
| CC[C@H](C)[C@H](NC(=O)[C@@H]1CCCN1C(=O)CNC(=O)[C@H](Cc1ccccc1)NC(=O)[C@H](CC(N)=O)NC(=O)[C@H](CC(N)=O)NC(=O)[C@H](CO)NC(=O)[C@H](CO)NC(=O)[C@H](CCCNC(=N)N)NC(=O)[C@H](Cc1c[nH]cn1)NC(=O)[C@H](CC(C)C)NC(=O)[C@H](Cc1ccccc1)NC(=O)[C@H](CCC(=O)O)NC(=O)[C@H](C)NC(=O)[C@H](CC(C)C)NC(=O)[C@H](CCCNC(=N)N)NC(=O)[C@H](CCC(N)=O)NC(=O)[C@@H](NC(=O)[C@H](C)NC(=O)[C@@H]1CSSC[C@H](NC(=O)[C@H](CCC(=O)O)NC(=O)CC[C@H](NC(=O)CCCCCCCCCCCCCCCCCCC(=O)O)C(=O)O)C(=O)N[C@@H](CC(N)=O)C(=O)N[C@@H]([C@@H](C)O)C(=O)N[C@@H](C)C(=O)N[C@@H]([C@@H](C)O)C(=O)N1)[C@@H](C)O)C(=O)N[C@@H](CC(C)C)C(=O)N1CCC[C@H]1C(=O)N1CCC[C@H]1C(=O)N[C@H](C(=O)N[C@@H](CC(N)=O)C(=O)N[C@H](C(=O)NCC(=O)N[C@@H](CO)C(=O)N[C@@H](CC(N)=O)C(=O)N[C@H](C(=O)N1CCC[C@H]1C(N)=O)[C@@H](C)O)C(C)C)[C@@H](C)O [Example 10, N-alpha-[(S)-4-Carboxy-4-(19-carboxynonadecanoylamino)butyryl]-[Glu1, Glu14, His17, Arg18, Pro37]-pramlintide] ({C20 diacid-γGlu}-ECNTATCATQRLAEFLHRSSNNFGPILPPTNVGSNTP-NH2; disulfide 2-7) | 50% | 40% |  |  |
| CC[C@H](C)[C@H](NC(=O)[C@@H]1CCCN1C(=O)CNC(=O)[C@H](Cc1ccccc1)NC(=O)[C@H](CC(N)=O)NC(=O)[C@H](CC(N)=O)NC(=O)[C@H](CO)NC(=O)[C@H](CO)NC(=O)[C@H](Cc1c[nH]cn1)NC(=O)[C@H](Cc1c[nH]cn1)NC(=O)[C@H](CC(C)C)NC(=O)[C@H](Cc1ccccc1)NC(=O)[C@H](CCC(=O)O)NC(=O)[C@H](C)NC(=O)[C@H](CC(C)C)NC(=O)[C@H](CCCNC(=N)N)NC(=O)[C@H](CCC(N)=O)NC(=O)[C@@H](NC(=O)[C@H](C)NC(=O)[C@@H]1CSSC[C@H](NC(=O)[C@H](Cc2c[nH]cn2)NC(=O)[C@H](Cc2c[nH]cn2)NC(=O)[C@H](Cc2c[nH]cn2)NC(=O)CC[C@H](NC(=O)CCCCCCCCCCCCCCCCCCC(=O)O)C(=O)O)C(=O)N[C@@H](CC(N)=O)C(=O)N[C@@H]([C@@H](C)O)C(=O)N[C@@H](C)C(=O)N[C@@H]([C@@H](C)O)C(=O)N1)[C@@H](C)O)C(=O)N[C@@H](CC(C)C)C(=O)N1CCC[C@H]1C(=O)N1CCC[C@H]1C(=O)N[C@H](C(=O)N[C@@H](CC(N)=O)C(=O)N[C@H](C(=O)NCC(=O)N[C@@H](CO)C(=O)N[C@@H](CC(N)=O)C(=O)N[C@H](C(=O)N[C@@H](Cc1ccc(O)cc1)C(N)=O)[C@@H](C)O)C(C)C)[C@@H](C)O [Example 11, N-alpha-[(S)-4-Carboxy-4-(19-carboxynonadecanoylamino)butyryl]-His-His-[His1,Glu14,His17]-pramlintide] ({C20 diacid-γGlu}-HHHCNTATCATQRLAEFLHHSSNNFGPILPPTNVGSNTY-NH2; disulfide 4-9) |  |  | 87% | 92% |
| CC[C@H](C)[C@H](NC(=O)[C@@H]1CCCN1C(=O)CNC(=O)[C@H](Cc1ccccc1)NC(=O)[C@H](CC(N)=O)NC(=O)[C@H](CC(N)=O)NC(=O)[C@H](CO)NC(=O)[C@H](CO)NC(=O)[C@H](Cc1c[nH]cn1)NC(=O)[C@H](Cc1c[nH]cn1)NC(=O)[C@H](CC(C)C)NC(=O)[C@H](Cc1ccccc1)NC(=O)[C@H](CCC(=O)O)NC(=O)[C@H](C)NC(=O)[C@H](CC(C)C)NC(=O)[C@H](CCCNC(=N)N)NC(=O)[C@H](CCC(N)=O)NC(=O)[C@@H](NC(=O)[C@H](C)NC(=O)[C@@H]1CSSC[C@H](NC(=O)[C@H](CCCCN)NC(=O)CC[C@H](NC(=O)CCCCCCCCCCCCCCCCCCC(=O)O)C(=O)O)C(=O)N[C@@H](CC(N)=O)C(=O)N[C@@H]([C@@H](C)O)C(=O)N[C@@H](C)C(=O)N[C@@H]([C@@H](C)O)C(=O)N1)[C@@H](C)O)C(=O)N[C@@H](CC(C)C)C(=O)N1CCC[C@H]1C(=O)N1CCC[C@H]1C(=O)N[C@H](C(=O)N[C@@H](CC(N)=O)C(=O)N[C@H](C(=O)NCC(=O)N[C@@H](CO)C(=O)N[C@@H](CC(N)=O)C(=O)N[C@H](C(=O)N[C@@H](Cc1ccc(O)cc1)C(N)=O)[C@@H](C)O)C(C)C)[C@@H](C)O [Example 27, N-alpha-[(S)-4-Carboxy-4-(19-carboxynonadecanoylamino)butyryl]-[Glu14,His17]-pramlintide] ({C20 diacid-γGlu}-KCNTATCATQRLAEFLHHSSNNFGPILPPTNVGSNTY-NH2; disulfide 2-7) | 56% | 53% |  |  |
| CC[C@H](C)[C@H](NC(=O)[C@@H]1CCCN1C(=O)CNC(=O)[C@H](Cc1ccccc1)NC(=O)[C@H](CC(N)=O)NC(=O)[C@H](CC(N)=O)NC(=O)[C@H](CO)NC(=O)[C@H](CO)NC(=O)[C@H](Cc1c[nH]cn1)NC(=O)[C@H](Cc1c[nH]cn1)NC(=O)[C@H](CC(C)C)NC(=O)[C@H](Cc1ccccc1)NC(=O)[C@H](CCC(=O)O)NC(=O)[C@H](C)NC(=O)[C@H](CC(C)C)NC(=O)[C@H](CCCNC(=N)N)NC(=O)[C@H](CCC(N)=O)NC(=O)[C@@H](NC(=O)[C@H](C)NC(=O)[C@@H]1CSSC[C@H](NC(=O)[C@H](CCCCN)NC(=O)[C@H](CCC(=O)O)NC(=O)CC[C@H](NC(=O)CCCCCCCCCCCCCCCCC(=O)O)C(=O)O)C(=O)N[C@@H](CC(N)=O)C(=O)N[C@@H]([C@@H](C)O)C(=O)N[C@@H](C)C(=O)N[C@@H]([C@@H](C)O)C(=O)N1)[C@@H](C)O)C(=O)N[C@@H](CC(C)C)C(=O)N1CCC[C@H]1C(=O)N1CCC[C@H]1C(=O)N[C@H](C(=O)N[C@@H](CC(N)=O)C(=O)N[C@H](C(=O)NCC(=O)N[C@@H](CO)C(=O)N[C@@H](CC(N)=O)C(=O)N[C@H](C(=O)N[C@@H](Cc1ccc(O)cc1)C(N)=O)[C@@H](C)O)C(C)C)[C@@H](C)O [Example 42, N-alpha-[(S)-4-Carboxy-4-(17-carboxyheptadecanoylamino)butyryl]-Glu-[Glu14, His17]-pramlintide] ({C18 diacid-γGlu}-EKCNTATCATQRLAEFLHHSSNNFGPILPPTNVGSNTY-NH2; disulfide 3-8 (inferred); C-terminus assumed) | 45% | 5% |  |  |
| CC[C@H](C)[C@H](NC(=O)[C@@H]1CCCN1C(=O)CNC(=O)[C@H](Cc1ccccc1)NC(=O)[C@H](CC(N)=O)NC(=O)[C@H](CC(N)=O)NC(=O)[C@H](CO)NC(=O)[C@H](CO)NC(=O)[C@H](Cc1c[nH]cn1)NC(=O)[C@H](Cc1c[nH]cn1)NC(=O)[C@H](CC(C)C)NC(=O)[C@H](Cc1ccccc1)NC(=O)[C@H](CCC(=O)O)NC(=O)[C@H](C)NC(=O)[C@H](CC(C)C)NC(=O)[C@H](CCCNC(=N)N)NC(=O)[C@H](CCC(N)=O)NC(=O)[C@@H](NC(=O)[C@H](C)NC(=O)[C@@H]1CSSC[C@H](NC(=O)[C@H](CCCCN)NC(=O)CC[C@H](NC(=O)CCCCCCCCCCCCCCCCCCC(=O)O)C(=O)O)C(=O)N[C@@H](CC(N)=O)C(=O)N[C@@H]([C@@H](C)O)C(=O)N[C@@H](C)C(=O)N[C@@H]([C@@H](C)O)C(=O)N1)[C@@H](C)O)C(=O)N[C@@H](CC(C)C)C(=O)N1CCC[C@H]1C(=O)N1CCC[C@H]1C(=O)N[C@H](C(=O)N[C@@H](CC(N)=O)C(=O)N[C@H](C(=O)NCC(=O)N[C@@H](CO)C(=O)N[C@@H](Cc1c[nH]cn1)C(=O)N[C@H](C(=O)N[C@@H](Cc1ccc(O)cc1)C(N)=O)[C@@H](C)O)C(C)C)[C@@H](C)O [Example 55, N-alpha-[(S)-4-Carboxy-4-(19-carboxynonadecanoylamino)butyryl]-[Glu14,His17,His 35]-pramlintide] ({C20 diacid-γGlu}-KCNTATCATQRLAEFLHHSSNNFGPILPPTNVGSHTY-NH2; disulfide 2-7 (inferred); C-terminus assumed) | 58% | 40% | 88% | 90% |
